# Data from patent EP0903343A1, “Alpha-Substituted phenylpropionic acid derivative and medicine containing the same” (SSP Co., Ltd., priority 1997, dated 1999).
# System: db/db Mice
# Assay: Antidiabetic effect on diabetic model mice (blood glucose lowering)
# Type: in vivo
# Details: Mus musculus, po, 10 mg/kg/day orally once a day for 4 days, blood glucose 18 to 24 hours after final administration, vs control group, read-out: Percent reduction (%) of blood glucose
# Procedure: The α-substituted phenylpropionic acid derivatives (1) according to the present invention were used to conduct a test for evaluating their activities against model mice suffering from non-insulin dependent diabetes mellitus (NIDDM). Incidentally, pioglitazone was used as a comparative compound.
# db/db Mice (Crea Co.; preliminarily rearing male mice aged 7 to 9 weeks for a week and using 4 or 5 mice having a blood glucose level of at least 300 mg/dl as a group) were used as subject animals. A predetermined amount of each of the compounds according to the present invention or the comparative compound was orally administered to the mice for 4 days once a day with the compound suspended in a 0.5% aqueous solution of sodium carboxymethyl cellulose. At 18 to 24 hours after the final administration, blood was collected from each of the subject animals to determine its blood glucose level (found value) by means of a simplified blood glucose meter, Mediace (manufactured by Terumo Corporation). On the other hand, the blood glucose level of a group of mice (control group) to which only a 0.5% aqueous solution of sodium carboxymethyl cellulose had been administered was also determined (control value).
# On the basis of the thus-determined blood glucose level as to each of the compounds according to the present invention and the comparative compound, percent reduction of blood glucose was calculated out in accordance with the following equation. Percent reduction (%) = [(Control value - Found value)/(Control value)] x 100 [formula]
row,Structure (SMILES),inhibition in vivo at 10 mg/kg/day
1,CCOC(Cc1ccc(OCCn2nc(C)c3ccccc3c2=O)cc1)C(=O)O (stereo not drawn) [Compound 1BC],50%

# Same assay, conditions: Mus musculus, po, 20 mg/kg/day orally once a day for 4 days, blood glucose 18 to 24 hours after final administration, vs control group, read-out: Percent reduction (%) of blood glucose
row,Structure (SMILES),inhibition in vivo at 20 mg/kg/day
1,CCOC(Cc1ccc(OCCn2c(=O)c3ccc(C(F)(F)F)cc3n(C)c2=O)cc1)C(=O)O (stereo not drawn) [Compound 1AR],38%
2,"CCOC(Cc1ccc(OCCn2ncc3ccccc3c2=O)cc1)C(=O)NO (stereo not drawn) [Compound 1AA, 2-ethoxy-3-{4-[2-(1-oxo-1,2-dihydrophthalazin-2-yl)ethoxy]phenyl}propanohydroxamic acid]",48%
3,"CCc1ccc(CCOc2ccc(CC3SC(=O)NC3=O)cc2)nc1 (stereo not drawn) [Pioglitazone, pioglitazone, reference compound]",26%
4,CCOC(Cc1ccc(OCCN2COc3ccccc3C2=O)cc1)C(N)=O (stereo not drawn) [Compound 1J],73%
5,"CCOC(Cc1ccc(OCCn2ncc3ccccc3c2=O)cc1)C(=O)O (stereo not drawn) [Compound 1B, 2-ethoxy-3-{4-[2-(1-oxo-1,2-dihydrophthalazin-2-yl)ethoxy]phenyl}propanoic acid]",43%
6,CCOC(Cc1ccc(OCCn2ccc3ccccc3c2=O)cc1)C(=O)O (stereo not drawn) [Compound 1BS],60%
7,"CCOC(=O)C(Cc1ccc(OCCn2nc(C)c3ccccc3c2=O)cc1)OCC (stereo not drawn) [Compound 1BI, ethyl 2-ethoxy-3-{4-[2-(4-methyl-1-oxo-1,2-dihydrophthalazin-2-yl)ethoxy]phenyl}propanoate]",52%

# Same assay, conditions: Mus musculus, po, 50 mg/kg/day orally once a day for 4 days, blood glucose 18 to 24 hours after final administration, vs control group, read-out: Percent reduction (%) of blood glucose
row,Structure (SMILES),inhibition in vivo at 50 mg/kg/day
1,"CCc1ccc(CCOc2ccc(CC3SC(=O)NC3=O)cc2)nc1 (stereo not drawn) [Pioglitazone, pioglitazone, reference compound]",44%
2,"CCOC(Cc1ccc(OCCn2ncc3ccccc3c2=O)cc1)C(N)=O (stereo not drawn) [Compound 1A, 2-ethoxy-3-{4-[2-(1-oxo-1,2-dihydrophthalazin-2-yl)ethoxy]phenyl}propanamide]",73%
3,CCOC(Cc1ccc(OCCN2COc3ccccc3C2=O)cc1)C(=O)O (stereo not drawn) [Compound 1K],69%
4,CC(C)OC(Cc1ccc(OCCN2COc3ccccc3C2=O)cc1)C(N)=O (stereo not drawn) [Compound 1N],72%
5,"COC(Cc1ccc(OCCN2COc3ccccc3C2=O)cc1)C(N)=O (stereo not drawn) [Compound 1P, 2-methoxy-3-{4-[2-(4-oxo-3,4-dihydro-2H-1,3-benzoxazin-3-yl)ethoxy]phenyl}propanamide]",66%
6,"CCOC(Cc1ccc(CCn2cnc3ccccc3c2=O)cc1)C(N)=O (stereo not drawn) [Compound 1Q, 2-ethoxy-3-{4-[2-(4-oxo-3,4-dihydroquinazolin-3-yl)ethyl]phenyl}propanamide]",49%
7,"CCSC(Cc1ccc(OCCN2COc3ccccc3C2=O)cc1)C(=O)O (stereo not drawn) [Compound 1O, 2-ethylthio-3-{4-[2-(4-oxo-3,4-dihydro-2H-1,3-benzoxazin-3-yl)ethoxy]phenyl}propanoic acid]",42%
